Where two headings read alike, the source gives them in different places. Blank lines part the entries; values can stand above or below the molecule they belong to.
Tests used:
[1] = target: T1, LTD4 receptor (guinea-pig lung membranes) (Cavia porcellus, UniProt Q2NNR5); assay: biochemical; conditions: for effect of divalent cation on [3H]LTD4 specific binding: CaCl2 at concentrations above 30 mM, MgCl2 instead of CaCl2
T1 sequence (Q2NNR5 1-340): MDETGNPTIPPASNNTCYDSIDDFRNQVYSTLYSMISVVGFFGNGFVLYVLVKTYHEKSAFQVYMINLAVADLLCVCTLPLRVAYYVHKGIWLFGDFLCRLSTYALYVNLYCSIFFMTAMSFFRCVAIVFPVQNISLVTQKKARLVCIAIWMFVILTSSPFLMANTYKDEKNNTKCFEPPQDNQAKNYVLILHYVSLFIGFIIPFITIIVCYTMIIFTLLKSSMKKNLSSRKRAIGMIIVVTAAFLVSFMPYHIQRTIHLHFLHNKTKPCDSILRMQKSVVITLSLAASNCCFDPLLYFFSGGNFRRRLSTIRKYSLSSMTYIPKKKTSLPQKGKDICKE
Protocol: (§1) Guinea pigs (male; 350 g) were sacrificed by cervical dislocation and the lung tissues removed. All subsequent procedures were performed either on ice or at 4° C. Connective tissue, trachea, large blood vessels and major airways were dissected away and the remaining lung tissue (primarily parenchyma) was finely minced prior to homogenisation in 10 vol of 10 mM HEPES/KOH pH 7.4, containing 0.25 M sucrose, 2 mM EDTA, 2 mM phenylmethylsulphonyl fluoride, 10 μg/ml pepstatin, 10 μg/ml leupeptin and 10 μM E-64, using 5 s bursts of a polytron (Brinkman Instruments). The homogenate was subjected to differential centrifugation at 1000×g for 10 min, 10,000×g for 10 min and 100,000×g for 40 min. The resulting 100,000×g pellets were resuspended in 10 mM HEPES/KOH pH 7.4, containing 10% (w/v) sucrose, at a final protein concentration of 1-2 mg/ml. This tissue suspension was carefully layered over 10 mM HEPES/KOH pH 7.4 containing 40% (w/v) sucrose in a 3:2 (v/v) ratio. The discontinuous sucrose gradient was centrifuged at 83,000×g for 60 min. The membrane fraction located at the interface of the sucrose gradient layers was recovered, diluted 10-fold in 10 mM HEPES/KOH pH 7.4 and further centrifuged at 150,000×g for 40 min. The final membrane pellets were resuspended in 10 mM HEPES/KOH pH 7.4 at a protein concentration of 2-4 mg/ml and stored at […].
Competition experiments were analysed and IC50 values derived using the Kinetic, EBDA, Ligand, […] program from Biosoft (McPherson, 1985).
(§2) FIG. 4. […] Radiolabelled proteins were resolved by SDS-PAGE and visualized by autoradiography. […] In addition, photoaffinity labelled membranes were subjected to immunoprecipitation with RAGpAlb (Lane C) and non-immune rabbit serum (Lane D), as described in the Methods. The migration of molecular weight standards is indicated on the left. FIGS. 5(A)-5(C). […] Results are expressed as percentage of maximum specific binding as a function of CaCl2 concentration. […] Only the results for total binding are shown.
(§3) Results are expressed as percentage of maximum specific binding as a function of nucleotide concentration. […] Only the results for total binding are shown.
(§4) Results are expressed as percentage of maximum specific binding as a function of cation concentration. […] Only the results for total binding are shown.

[2] = target: T1, LTD4 receptor (guinea-pig lung membranes); conditions: for effect of divalent cation on [125I]Azido-LTD4 specific binding: CaCl2 at concentrations above 30 mM, MgCl2 instead of CaCl2
Protocol: as §1
Filters were then washed with 16 ml of 10 mM HEPES/KOH, pH 7.4 containing 0.01% (w/v) bovine serum albumin, at 4° C.
as §2, §3, §4

[3] = system: 45 kDa guinea-pig lung membrane protein; assay: [125I]Azido-LTD4 photoaffinity labelling of the 45 kDa guinea-pig lung membrane protein (SDS-PAGE, autoradiography, laser densitometry); type: binding; conditions: for effect of divalent cation on photolabelling of the 45 kDa protein: CaCl2, same concentration range, MgCl2 instead of CaCl2
Protocol: as §1
(§5) Samples were incubated for 60 min at room temperature. […] The residual samples were then transferred to 25 mm diameter cluster plate well for photolysis. The cluster plates were placed on aluminium blocks, pre-cooled to -20° C., and illuminated from above with a 40 W ultraviolet light source (Phillips, γmax =350 nm) at a distance of 10 cm for 2 min. The guinea-pig lung membranes were then recovered from 1 ml sample aliquots by centrifugation at 150,000×g for 15 min at 4° C. and solubilized in sodium dodecyl sulphate polyacrylamide gel electrophoresis (SDS-PAGE) sample buffer prior to resolution of the proteins by SDS-PAGE (Laemmli, 1970). Protein bands were visualized by Coomassie Blue staining while radiolabelled proteins were identified by autoradiography of dried gels and quantified by laser densitometry (Molecular Dynamics, ImageQuant).
as §2, §3, §4

[4] = target: T2, 45 kDa guinea-pig lung membrane protein (Cavia porcellus, UniProt Q2NNR5); assay: as above; type: binding; conditions: for IC50: laser densitometry, leukotrienes and antagonists, read-out: IC50 for inhibition of photolabelling of the 45 kDa protein
T2 construct: Guinea pigs (male; from tissue; host or cells: guinea-pig lung (primarily parenchyma), sucrose-gradient membrane fraction
T2 sequence (Q2NNR5 1-340): T1 sequence (Q2NNR5 1-340)
Protocol: as §1, §5, §2, §3, §4

[5] = target: T1, LTD4 receptor (guinea-pig lung membranes); assay: Rates of association and dissociation of radioligand binding to guinea-pig lung membranes; set-up: Guinea pigs (male; from tissue; host or cells: guinea-pig lung (primarily parenchyma), sucrose-gradient membrane fraction; conditions: identical experimental conditions; data not shown
Protocol: FIG. 3. […] Aliquots (500 μl) were removed and filtered at the required time intervals.

[6] = target: T1, LTD4 receptor (guinea-pig lung membranes); assay: Saturation binding to guinea-pig lung membranes, Scatchard plot analysis; set-up: Guinea pigs (male; 350 g) were sacrificed by cervical dislocation and the lung tissues removed; from tissue; host or cells: guinea-pig lung (primarily parenchyma), sucrose-gradient membrane fraction; conditions: Scatchard, single site

SMILES: Nc1ncnc2c1ncn2[C@@H]1O[C@H](COP(=O)(O)OP(=O)(O)OP(O)(O)=S)[C@@H](O)[C@H]1O [ATPγS]
effect of nucleotide analogue on [3H]LTD4 specific binding ([1]; ATPγS): no detectable effect
potency relative to GTPγS in inhibiting [125I]Azido-LTD4 specific binding (fold less potent) ([2]; ATPγS vs GTPγS): 100 fold

SMILES: [Ca+2].[Cl-].[Cl-] [CaCl2]
concentration for optimal [3H]LTD4 specific binding [1]: 3 to 30 mM
effect of divalent cation on [3H]LTD4 specific binding [1]: higher concentrations proving inhibitory
concentration for optimal [125I]Azido-LTD4 specific binding [2]: 3 to 30 mM
effect of divalent cation on [125I]Azido-LTD4 specific binding [2]: higher concentrations proving inhibitory
concentration for optimal radiolabelling of the 45 kDa protein [3]: 3 to 30 mM
effect of divalent cation on photolabelling of the 45 kDa protein [3]: enhanced

SMILES: Nc1nc2c(ncn2[C@@H]2O[C@H](COP(=O)(O)OP(=O)(O)OP(O)(O)=S)[C@@H](O)[C@H]2O)c(=O)[nH]1 [GTPγS]
inhibition at 1000 µM ([1]; read-out: inhibition of [3H]LTD4 specific binding): 60%
inhibition of [125I]Azido-LTD4 specific binding ([2]; 10 μM GTPγS): complete inhibition
potency relative to ATPγS in inhibiting photolabelling of the 45 kDa protein (fold more potent) ([3]; GTPγS vs ATPγS): 100 fold
IC50 ([3]; nucleotide analogue, read-out: IC50 for inhibition of photolabelling of the 45 kDa protein): 1 µM

SMILES: [Cl-].[K+] [KCl]
inhibition of [3H]LTD4 specific binding ([1]; KCl, 0-100 mM): did not significantly inhibit
inhibition of [125I]Azido-LTD4 specific binding ([2]; KCl, 0-100 mM): did not significantly inhibit
inhibition of photolabelling of the 45 kDa protein ([3]; KCl, 0-100 mM): did not significantly inhibit

SMILES: [Cl-].[Cl-].[Mg+2] [MgCl2]
effect of divalent cation on [3H]LTD4 specific binding [1]: Identical results
effect of divalent cation on [125I]Azido-LTD4 specific binding [2]: Identical results
effect of divalent cation on photolabelling of the 45 kDa protein [3]: Identical results

SMILES: [Cl-].[Na+] [NaCl]
IC50 ([1]; read-out: IC50 for inhibition of [3H]LTD4 specific binding, monovalent cation): ~30000 µM
IC50 ([2]; read-out: IC50 for inhibition of [125I]Azido-LTD4 specific binding, monovalent cation): ~30000 µM
IC50 ([3]; monovalent cation, read-out: IC50 for inhibition of radiolabelling of the 45 kDa protein): ~30000 µM

SMILES: CCCCC/C=C\C\C=C/C=C/C=C/[C@@H](SCC(N)C(=O)NCC(=O)O)[C@@H](O)CCCC(=O)O (some centres unmarked) [[^3 H]LTD4]
association and dissociation profile compared with [125I]Azido-LTD4 [5]: identical
maximum number of binding sites (Bmax) [6]: 2000 fmol/mg protein

SMILES: CCCCC/C=C\C\C=C/C=C/C=C/[C@@H](SC[C@H](NC(=O)CCCCCNC(=O)c1cc(I)c(N=[N+]=[N-])cc1O)C(=O)NCC(=O)O)[C@@H](O)CCCC(=O)O [^127 lAzido-LTD4]
Ki [1]: 0.0017 µM
Ki relative to LTD4 (fold higher) ([1]; vs Ki of LTD4, same assay): 5 fold

SMILES: COc1cc(C(=O)NS(=O)(=O)c2ccccc2C)ccc1Cc1cn(C)c2ccc(NC(=O)OC3CCCC3)cc12 [lCl 204,219]
IC50 [4]: 0.0003 µM

Now from value to molecule, other results behind:

potency relative to LTD4 (fold less potent), [3H]LTD4 specific binding ([1]; vs LTD4): approximately 10000 fold
potency relative to LTD4 (fold less potent), [125I]Azido-LTD4 specific binding ([2]; vs LTD4): approximately 10000 fold
concentration at which it competes for radiolabelling of the 45 kDa protein ([4]; LTB4): 10 µM
SMILES: CCCCC/C=C\C[C@@H](O)/C=C/C=C/C=C\[C@@H](O)CCCC(=O)O [LTB4]

IC50 [1]: 0.002 µM
IC50 ([2]; read-out: IC50 for competition with [125I]Azido-LTD4 specific binding, leukotrienes and antagonists, LTC4 with 50 mM serine-borate): 0.003 µM
IC50 [4]: 0.001 µM
SMILES: CN(C)C(=O)CCSC(SCCC(=O)O)c1cccc(/C=C/c2ccc3ccc(Cl)cc3n2)c1 (centres unmarked) [MK-571]

concentration producing inhibition of [3H]LTD4 specific binding ([1]; weak competing ligand): > 1 µM
concentration producing inhibition of [125I]Azido-LTD4 specific binding ([2]; weak competing ligand): > 1 µM
SMILES: CC(C)c1ccc2c(c1)c(SC(C)(C)C)c(CC(C)(C)C(=O)O)n2Cc1ccc(Cl)cc1 [MK-886]
competition for radiolabelling of the 45 kDa protein ([4]; MK-886, 0-10 μM): only able to compete for the selective radiolabelling of the 45 kDa protein at similarly high ligand concentrations
